Measurements reported in patent US4320136A, “8-Aza-16,16-difluoroprostanoids” (E. I. Du Pont de Nemours and Company, priority 1980, dated 1982).

Columns and labels:
[1] = tested on: necrosis and inflammation of the stomach caused by ethanol; assay: protection of rat stomach from ethanol-caused necrosis and inflammation (cytoprotection, oral); assay type: in vivo, rat (fasted, male); conditions: for ED50 / inhibition in vivo at 2 mg/kg: Rattus norvegicus; for ED50 / inhibition in vivo at 2 mg/kg / Percent Protection 2 mg/kg, at 1 hr: oral; for ED50: 50% protection, at peak time; for Peak Time: interval between compound and ethanol at which greatest protection is observed; for inhibition in vivo at 2 mg/kg: po, 1 h, read-out: Percent Protection 2 mg/kg, at 1 hr; for inhibition in vivo at 2 mg/kg / Percent Protection 2 mg/kg, at 1 hr: 1 hr between compound and ethanol; for cytoprotective effect (in words): rat, in vivo
Procedure: Some differences in the cytoprotective properties of these optical isomers are indicated by data in Table I. Using a method similar to that of Robert [U.S. Pat. No. 4,097,603 (1978)], fasted, male rats were treated with 8-azaprostanoids orally and various times later they were treated orally with 1.0 ml of absolute ethanol. The rats were sacrificed after ethanol administration and the stomachs were removed, inspected, and rated. The ED50 values in Table I represent the doses of 8-aza-16,16-difluoroprostanoids that gave 50% protection from the necrosis and inflammation of the stomach caused by ethanol. Values for the natural prostaglandin E1 (PGE1) and for two known nonfluorinated 8-azaprostanoids are given for comparison.
*"1 hr" refers to the one hour interval between administration of compoun
and subsequent ethanol administration.
**"Peak Time" refers to that interval between administration of compound
and administration of ethanol at which greatest protection is observed.

[2] = tested on: histamine-induced bronchoconstriction; assay: aerosol histamine challenge test (histamine-induced bronchoconstriction); assay type: in vivo, guinea pig
Procedure: As has been mentioned, compounds of this invention also show activity as potential drugs for controlling bronchial asthma. Using an aerosol histamine challenge test in guinea pigs [a modification of the method of M. E. Rosenthale et al, Experientia, 26, 119 (1970)], the ability of 8-aza-16,16-difluoroprostanoids administered by i.p. injection to protect against histamine-induced bronchoconstriction was measured. Using injections of 0.5 mg/kg and evaluating the guinea pigs 60 minutes after the injections, compound 6 gave 40% protection, compound 6l (15 RS) gave 39% protection, and compound 6d(15 RS) gave 14% protection. An oral dose of compound 8 at 5 mg/kg gave 80% protection at 2 hours.

PGE1 = PGE1 antagonist test on isolated rat stomach strips
From the text: These PGE1 antagonist tests were run on isolated rat stomach strips.

[3] = i.p. 0.5 mg/kg, 60 minutes after injection, 0.5 mg/kg

Structure (SMILES) | ED50 [1] | Peak Time [1] | inhibition in vivo at 2 mg/kg [1] | other results
CCCCCCC(F)(F)[C@@H](O)/C=C/[C@H]1CCC(=O)N1CCCCCCC(=O)O (single isomer, unassigned) [7l (15S), 7-[2-Oxo-5(R or S)-5-(4,4-difluoro-3(R or S)-3-hydroxy-1n-dec-1(E)-enyl)-1-pyrrolidinyl]heptanoic Acid] | 0.01 mg/kg |  |  | 
CCCCC(F)(F)C(O)/C=C/C1CCC(=O)N1CCCCCCC(=O)O (racemic) [Compound 14, racemic 7-[2-Oxo-5(RS)-5-(4,4-difluoro-3(RS)-3-hydroxyl-1-n-oct-1(E)-enyl)-1-pyrrolidinyl]heptanoic Acid] | 0.22 mg/kg | 60 min |  | 
CCCCCCC(F)(F)C(O)/C=C/C1CCC(=O)N1CCCCCCC(=O)O (racemic) [Compound 7, racemic 7-[2-Oxo-5(RS)-(4,4-difluoro-3(RS)-hydroxy-1-n-dec-1(E)-enyl)-1-pyrrolidinyl]heptanoic Acid] | 0.0035 mg/kg | 15 min | 91% | 
CCCCC(F)(F)C(O)/C=C/C1CCC(=O)N1CCCCCCC(=O)OC(C)(C)C (racemic) [Compound 13, racemic t-Butyl 7-[2-Oxo-5(RS)-5-(4,4-difluoro-3(RS)-3-hydroxy-1-n-oct-1(E)-enyl)-1-pyrrolidinyl]heptanoate] | 0.8 mg/kg | 15 min | 66% | 
CC(C)(C)OC(=O)CCCCCCN1C(=O)CCC1/C=C/C(O)C(F)(F)c1ccccc1 (racemic) [Compound 21, racemic tert-Butyl 7-[2-Oxo-5(RS)-5-(4,4-difluoro-3(RS)-hydroxy-4-phenyl-1n-but-1(E)-enyl)-1-pyrrolidinyl]heptanoate] |  |  | 68% | 
CCCCCCC(F)(F)C(O)C=CC1CCC(=O)N1CCCCCCC(=O)OC(C)(C)C (single isomer, unassigned) [6d (15RS), tert-Butyl 7-[2-Oxo-5(R or S)5(4,4-difluoro-3-hydroxy-1n-dec-1(E)-enyl)-1-pyrrolidinyl]heptanoate] |  |  |  | protection against histamine-induced bronchoconstriction [2, 3]: 14%; Percent Protection 2 mg/kg, at 1 hr [1]: -5%; cytoprotective effect (in words) [1]: no (or a negative) cytoprotective effect; IC50 against PGE1 (PGE1): 3 to 5 µg/mL
CCCCCCC(F)(F)C(O)C=CC1CCC(=O)N1CCCCCCC(=O)OC(C)(C)C (single isomer, unassigned) [6l (15RS), tert-Butyl 7-[2-Oxo-5(R or S)5(4,4-difluoro-3-hydroxy-1n-dec-1(E)-enyl)-1-pyrrolidinyl]heptanoate] |  |  |  | protection against histamine-induced bronchoconstriction [2, 3]: 39%; Percent Protection 2 mg/kg, at 1 hr [1]: 59%
CCCCCC(O)C=CC1CCC(=O)N1CCCCCCC(=O)OC (stereo not shown) [methyl 7-[2-oxo-5-(3-hydroxy-1-oct-1-enyl)-1-pyrrolidinyl]heptanoate, reference compound] | 1.8 mg/kg | 60 min | 60% | 
CCCCCCC(F)(F)C(O)/C=C/C1CCC(=O)N1CCCCCCC(=O)OC(C)(C)C (racemic) [Compound 6, racemic tert-Butyl 7-[2-Oxo-5(RS)-5-(4,4-difluoro-3(RS)-3-hydroxy-1n-dec-1(E)-enyl)-1-pyrrolidinyl]-heptanoate] |  |  | 32% | protection against histamine-induced bronchoconstriction ([2]; i.p. 0.5 mg/kg, 60 minutes after injection): 40%; cytoprotective effect (in words) [1]: some cytoprotective activity; PGE1 antagonism (in words) (PGE1): weaker PGE1 antagonist
CCCCCCC(F)(F)[C@@H](O)/C=C/[C@H]1CCC(=O)N1CCCCCCC(=O)OC(C)(C)C (single isomer, unassigned) [6l (15S), tert-Butyl 7-[2-Oxo-5(R or S)-5-(4,4-difluoro-3(R or S)-3hydroxy-1-n-dec-1(E)-enyl)-1-pyrrolidinyl]heptanoate] |  |  | 9% | 
CCCCC(F)(F)C(O)/C=C/C1CCC(=O)N1CCCCCCC(=O)OC (stereo not shown) [Compound 15] | 0.025 mg/kg | 15 min | 88% | 
CCCCC[C@H](O)/C=C/[C@H]1[C@H](O)CC(=O)[C@@H]1CCCCCCC(=O)O [PGE1, prostaglandin E1, reference compound] | 0.011 mg/kg | 5 min |  | 
CCCCCC(O)C=CC1CCC(=O)N1CCCCCCC(=O)O (stereo not shown) [7-[2-oxo-5-(3-hydroxy-1-oct-1-enyl)-1-pyrrolidinyl]heptanoic acids, reference compound] | 3 mg/kg | 60 min | 40% | 
CCCCCCC(F)(F)[C@H](O)/C=C/[C@H]1CCC(=O)N1CCCCCCC(=O)O [7l (15R), 7-[2-oxo-5(R)-5-(4,4-difluoro-3(R)-3-hydroxy-1n-dec-1(E)-enyl)-1-pyrrolidinyl]heptanoic acid] | 0.0007 mg/kg | 15 min |  | 
CCCCCCC(F)(F)[C@H](O)/C=C/[C@H]1CCC(=O)N1CCCCCCC(=O)OC(C)(C)C (single isomer, unassigned) [6l (15R), tert-Butyl 7-[2-Oxo-5(R or S)-5-(4,4-difluoro-3(R or S)-3hydroxy-1-n-dec-1(E)-enyl)-1-pyrrolidinyl]heptanoate] |  |  | 59% | 
O=C(O)CCCCCCN1C(=O)CCC1/C=C/C(O)C(F)(F)c1ccccc1 (racemic) [Compound 22] |  |  | 82% | 
CCCCCCC(F)(F)C(O)/C=C/C1CCC(=O)N1CCCCCCC(=O)OC (racemic) [Compound 8, racemic Methyl 7-[2-Oxo-5(RS)-5-(4,4-difluoro-3(RS)-3-hydroxy-1-n-dec-1-(E)-enyl)-1-pyrrolidinyl]heptanoate] | 0.005 mg/kg | 15 min | 91% | protection against histamine-induced bronchoconstriction ([2]; oral 5 mg/kg, at 2 hours): 80%
